Experimental data from patent US20240182503A1, “MACROCYCLE COMPLEMENT FACTOR B INHIBITORS” (priority 2021, published 2024).
Where two headings read alike, the source gives them in different places.

Biological target: CVF-Bb complex (Homo sapiens (Human), UniProt P00751)
Assay: biochemical
Format: biochemical
Description: CVF-Bb complex, prepared from purified cobra venom factor, (3 nM) is incubated with a compound of the disclosure at various concentrations for 10 minutes at room temperature in PBS (pH 7.4) containing 10 mM MgCl2 and 0.05% (w/v) CHAPS. Human Complement C3 substrate is added to a final concentration of 1 μM. After 1 hour incubation at room temperature, the enzyme reaction is stopped by addition of a cocktail of concentrated pan-protease inhibitors. The product of the reaction, C3a, is quantified by means of an enzyme-linked-immunosorbent assay and/or denaturing gel electrophoresis (SDS-PAGE). IC50 values are calculated from percentage of inhibition of CVF-Bb activity as a function of test compound concentration.

With `Cc1cc2c(c3cc[nH]c13)CN1CC[C@@H](C[C@H]1c1ccc(C(=O)O)cc1)OCCCCCCCCCO2` (racemic) [Ex. 34, rac-4-((3^2R,3^4R)-1^7-methyl-11H-4,14-dioxa-1(4,5)-indola-3(1,4)-piperidinacyclotetradecaphane-3^2-yl)benzoic acid] the IC50 was > 10000 nM.
`COc1cc(C)c2[nH]ccc2c1CN1CC[C@H](OCCNC(C)=O)C[C@H]1c1ccc(C(=O)O)cc1` [Compar. Ex. 1, 4-((2S,4S)-4-(2-acetamidoethoxy)-1-((5-methoxy-7-methyl-1H-indol-4-yl)methyl)piperidin-2-yl)benzoic acid, reference compound] showed an IC50 of 135 nM.
Work on `CCO[C@H]1CCN(Cc2c(OC)cc(C)c3[nH]ccc23)[C@H](c2ccc(C(=O)NS(=O)(=O)CCNC(C)=O)cc2)C1` [Compar. Ex. 2, N-((2-acetamidoethyl)sulfonyl)-4-((2S,4S)-4-ethoxy-1-((5-methoxy-7-methyl-1H-indol-4-yl)methyl)piperidin-2-yl)benzamide, reference compound] yielded an IC50 of 395 nM.
`CCO[C@H]1CCN(Cc2c(OC)cc(C)c3[nH]ccc23)[C@H](c2ccc(C(=O)O)cc2OC)C1` [Ex. 3, 4-((2S,4S)-4-ethoxy-1-((5-methoxy-7-methyl-1H-indol-4-yl)methyl)piperidin-2-yl)-3-methoxybenzoic acid] was tested, and the IC50 was 263 nM.
In the case of `CCO[C@@H]1CCN(Cc2c(OC)cc(C)c3[nH]ccc23)[C@H](c2ccc(C(=O)O)cc2OC)C1` [Ex. 4, 4-((2S,4R)-4-ethoxy-1-((5-methoxy-7-methyl-1H-indol-4-yl)methyl)piperidin-2-yl)-3-methoxybenzoic acid], the IC50 is reported as 3550 nM.
`COc1cc(C)c2[nH]ccc2c1CN1CCC2CC1c1ccc(C(=O)O)cc1OCCCCCCO2` (stereo not drawn) [Ex. 5, (1^2S,1^4S)-11-((5-methoxy-7-methyl-1H-indol-4-yl)methyl)-3,10-dioxa-1(2,4)-piperidina-2(1,2)-benzenacyclodecaphane-2^4-carboxylic acid] showed an IC50 (read-out: IC50) of 262 nM.
Work on `CCO[C@H]1CCN(Cc2c(OC)cc(C)c3[nH]ccc23)[C@H](c2ccc(C(=O)O)cc2OCCNC(C)=O)C1` [Ex. 6, 3-(2-acetamidoethoxy)-4-((2S,4S)-4-ethoxy-1-((5-methoxy-7-methyl-1H-indol-4-yl)methyl)piperidin-2-yl)benzoic acid] yielded an IC50 of 313 nM.
In the case of `COc1cc(C)c2[nH]ccc2c1CN1CC[C@H]2C[C@H]1c1ccc(C(=O)O)cc1OCCCCCCCO2` [Ex. 7, (1^2S,1^4S)_1^1-((5-methoxy-7-methyl-1H-indol-4-yl)methyl)-3,11-dioxa-1(2,4)-piperidina-2(1,2)-benzenacycloundecaphane-2^4-carboxylic acid], the IC50 (read-out: IC50) is reported as 384 nM.
Work on `COc1cc(C)c2[nH]ccc2c1CN1CC[C@H]2C[C@H]1c1ccc(C(=O)O)cc1OCCCCCO2` [Ex. 8, (1^2S,1^4S)_1^1-((5-methoxy-7-methyl-1H-indol-4-yl)methyl)-3,9-dioxa-1(2,4)-piperidina-2(1,2)-benzenacyclononaphane-2^4-carboxylic acid] yielded an IC50 (read-out: IC50) of 397 nM.
`COc1cc(C)c2[nH]ccc2c1CN1CC[C@H]2C[C@H]1c1ccc(C(=O)O)cc1OCC/C=C\CO2` [Ex. 9, (1^2S,1^4S,Z)-1^1-((5-methoxy-7-methyl-1H-indol-4-yl)methyl)-3,9-dioxa-1(2,4)-piperidina-2(1,2)-benzenacyclononaphan-6-ene-2^4-carboxylic acid] showed an IC50 (read-out: IC50) of 342 nM.
With `COc1cc(C)c2[nH]ccc2c1CN1CC[C@H]2C[C@H]1c1ccc(C(=O)O)cc1OCCCC/C=C\CO2` [Ex. 10, (1^2S,1^4S,Z)-1^1-((5-methoxy-7-methyl-1H-indol-4-yl)methyl)-3,11-dioxa-1(2,4)-piperidina-2(1,2)-benzenacycloundecaphan-8-ene-2^4-carboxylic acid] the IC50 (read-out: IC50) was 384 nM.
Work on `COc1cc(C)c2[nH]ccc2c1CN1CC[C@H]2C[C@H]1c1ccc(C(=O)O)cc1OCCC/C=C\CO2` [Ex. 11, (1^2S,1^4S,Z)-1′-((5-methoxy-7-methyl-1H-indol-4-yl)methyl)-3,10-dioxa-1(2,4)-piperidina-2(1,2)-benzenacyclodecaphan-7-ene-2^4-carboxylic acid] yielded an IC50 (read-out: IC50) of 1200 nM.
For `COc1cc(C)c2[nH]ccc2c1CN1CC[C@H]2C[C@H]1c1ccc(C(=O)O)cc1OCCn1cc(nn1)CO2` [Ex. 12, (2^2S,2^4S,Z)-2^1-((5-methoxy-7-methyl-1H-indol-4-yl)methyl)-5′H-3,8-dioxa-2(2,4)-piperidina-5(4,1)-triazola-1(1,2)-benzenacyclooctaphane-1^4-carboxylic acid], the IC50 (read-out: IC50) was 280 nM.
`COc1cc(C)c2[nH]ccc2c1CN1CC[C@H]2C[C@H]1c1ccc(C(=O)O)cc1OCCCn1cc(nn1)CO2` [Ex. 13, (2^2S,2^4S,Z)-2^1-((5-methoxy-7-methyl-1H-indol-4-yl)methyl)-5′H-3,9-dioxa-2(2,4)-piperidina-5(4,1)-triazola-1(1,2)-benzenacyclononaphane-1^4-carboxylic acid] showed an IC50 (read-out: IC50) of 1110 nM.
For `Cc1cc2c(c3cc[nH]c13)CN1CC[C@@H](C[C@H]1c1ccc(C(=O)O)cc1)OCCCCCCCO2` [Ex. 25, 4-((3^2R,3^4R)-1^7-methyl-1^1H-4,12-dioxa-1(4,5)-indola-3(1,4)-piperidinacyclododecaphane-3^2-yl)benzoic acid], the IC50 was > 10000 nM.
Work on `CCO[C@H]1CCN2Cc3c(cc(C)c4[nH]ccc34)OCCCCCCCCOc3cc(C(=O)O)ccc3[C@@H]2C1` [Ex. 30, (19bS,21S)-21-ethoxy-4-methyl-7,8,9,10,11,12,13,14,19b,20,21,22,23,25-tetradecahydro-3H-benzo[7,8]pyrido[1′,2′:5,6][1,9,5]dioxaazacyclo-heptadecino[3,2-e]indole-1^7-carboxylic acid] yielded an IC50 of 4910 nM.
`CCO[C@H]1CCN2Cc3c(cc(C)c4[nH]ccc34)OCCCCCCCCCOc3cc(C(=O)O)ccc3[C@@H]2C1` [Ex. 31, (20bS,22S)-22-ethoxy-4-methyl-3,7,8,9,10,11,12,13,14,15,20b,21,22,23,24,26-hexadecahydrobenzo[7,8]pyrido[1′,2′:5,6][1,9, 5]dioxaazacyclooctadecino[3,2-e]indole-18-carboxylic acid] showed an IC50 of 2870 nM.
For `CCO[C@H]1CCN2Cc3c(cc(C)c4[nH]ccc34)OCCCCCCCCCCOc3cc(C(=O)O)ccc3[C@@H]2C1` [Ex. 32, (21bS,23S)-23-ethoxy-4-methyl-7,8,9,10,11,12,13,14,15,16,21b,22,23,24,25,2 7-hexadecahydro-3H-benzo[7,8]pyrido[1′,2′:5,6][1,9,5]dioxaazacyclo-nonadecino[3,2-e]indole-19-carboxylic acid], the IC50 was > 10000 nM.
With `COc1cc(C)c2[nH]ccc2c1CN1CC[C@H]2C[C@H]1c1ccc(C(=O)NS(C)(=O)=O)cc1OCCCCCCO2` [Ex. 33, (1^2S,1^4S)-1^1-((5-methoxy-7-methyl-1H-indol-4-yl)methyl)-N-(methylsulfonyl)-3,10-dioxa-1(2,4)-piperidina-2(1,2)-benzenacyclodecaphane-2^4-carboxamide] the IC50 was 96 nM.
`Cc1cc2c(c3cc[nH]c13)CN1CC[C@@H](C[C@H]1c1ccc(C(=O)O)cc1)OCCCCCCCCO2` [Ex. 35, 4-((3^2R,3^4R)-1^7-methyl-11H-4,13-dioxa-1(4,5)-indola-3(1,4)-piperidinacyclotridecaphane-3^2-yl)benzoic acid] was tested, and the IC50 was > 10000 nM.
In the case of `COc1cc(C)c2[nH]ccc2c1CN1CC[C@H]2C[C@H]1c1ccc(C(=O)O)cc1/C=C/CCCCCO2` [Ex. 36, (1^2R,1^4R,E)-1^1-((5-methoxy-7-methyl-1H-indol-4-yl)methyl)-10-oxa-1(2,4)-piperidina-2(1,2)-benzenacyclodecaphan-3-ene-2^4-carboxylic acid], the IC50 is reported as 241 nM.
